In ChEMBL document CHEMBL1921776, “Synthesis and biological activity of acetyl-protected hydroxybenzyl diethyl phosphates (EHBP) as potential chemotherapeutic agents” (Bioorg Med Chem Lett, 2011):
Calls of active or inactive are those of the source. No cut-off for these calls is given here.

Tests used:
[1] = system: HT-29; assay: Cell cycle arrest in human HT-29 cells assessed as reduction in G0/G1 phase after 24 hrs using propidium iodide staining-based flow cytometry; type: functional
[2] = system: Jurkat; assay: Cytotoxicity against human Jurkat cells assessed as growth inhibition after 24 hrs by MTT assay; type: functional, cell-based
[3] = system: HT-29; assay: Cell cycle arrest in human HT-29 cells assessed as accumulation of cells at S phase at 10 uM after 24 hrs using propidium iodide staining-based flow cytometry (reference value: 19.4%); type: functional
[4] = system: HT-29; assay: Cell cycle arrest in human HT-29 cells assessed as accumulation of cells at S phase at 3 uM after 24 hrs using propidium iodide staining-based flow cytometry (reference value: 19.4%); type: functional
[5] = system: MCF7; assay: Cytotoxicity against human MCF7 cells assessed as growth inhibition after 24 hrs by MTT assay; type: functional, cell-based; settings: MCF7, 24 h
[6] = system: BXPC-3; assay: Cytotoxicity against human BxPC3 cells assessed as growth inhibition after 24 hrs by MTT assay; type: functional, cell-based; settings: BXPC-3, 24 h
[7] = system: HT-29; assay: Induction of apoptosis in human HT-29 cells at 50 uM after 24 hrs using annexin V-FITC and propidium iodide staining by flow cytometry; type: functional
[8] = system: HT-29; assay: Cell cycle arrest in human HT-29 cells assessed as increase in G2/M phase after 24 hrs using propidium iodide staining-based flow cytometry; type: functional
[9] = system: A549; assay: Ratio of p-NO-ASA IC50 to compound IC50 for human A549 cells assessed as growth inhibition after 48 hrs by trypan blue assay; type: functional
[10] = system: MIA PaCa-2; assay: Ratio of p-NO-ASA IC50 to compound IC50 for human MIAPaCa2 cells assessed as growth inhibition after 48 hrs by trypan blue assay; type: functional
[11] = system: HCT-15; assay: Ratio of p-NO-ASA IC50 to compound IC50 for human HCT15 cells assessed as growth inhibition after 48 hrs by trypan blue assay; type: functional
[12] = system: HT-29; assay: Cell cycle arrest in human HT-29 cells assessed as accumulation of cells at G2/M phase at 3 uM after 24 hrs using propidium iodide staining-based flow cytometry (reference value: 5.8%); type: functional
[13] = system: HT-29; assay: Induction of apoptosis in human HT-29 cells after 24 hrs using annexin V-FITC and propidium iodide staining by flow cytometry; type: functional, cell-based
[14] = system: BXPC-3; assay: Ratio of p-NO-ASA IC50 to compound IC50 for human BxPC3 cells assessed as growth inhibition after 48 hrs by trypan blue assay; type: functional
[15] = system: HT-29; assay: Cell cycle arrest in human HT-29 cells assessed as accumulation of cells at G0/G1 phase at 3 uM after 24 hrs using propidium iodide staining-based flow cytometry (reference value: 74.8%); type: functional
[16] = system: HT-29; assay: Cytotoxicity against human HT-29 cells assessed as growth inhibition after 24 hrs by MTT assay; type: functional, cell-based; settings: HT-29, 24 h
[17] = system: LNCaP; assay: Ratio of p-NO-ASA IC50 to compound IC50 for human LNCAP cells assessed as growth inhibition after 48 hrs by trypan blue assay; type: functional
[18] = system: HT-29; assay: Cell cycle arrest in human HT-29 cells assessed as accumulation of cells at G0/G1 phase at 10 uM after 24 hrs using propidium iodide staining-based flow cytometry (reference value: 74.8%); type: functional
[19] = system: HT-29; assay: Ratio of p-NO-ASA IC50 to compound IC50 for human HT-29 cells assessed as growth inhibition after 48 hrs by trypan blue assay; type: functional
[20] = system: HT-29; assay: Induction of apoptosis in human HT-29 cells at 10 uM after 24 hrs using annexin V-FITC and propidium iodide staining by flow cytometry; type: functional
[21] = system: HT-29; assay: Antiproliferative activity against human HT-29 cells assessed as decrease of PCNA expression after 24 hrs by ELISA; type: functional, cell-based
[22] = system: SCC-25; assay: Ratio of p-NO-ASA IC50 to compound IC50 for human SCC25 cells assessed as growth inhibition after 48 hrs by trypan blue assay; type: functional
[23] = system: HT-29; assay: Cell cycle arrest in human HT-29 cells assessed as accumulation of cells at G2/M phase at 10 uM after 24 hrs using propidium iodide staining-based flow cytometry (reference value: 5.8%); type: functional
[24] = system: HT-29; assay: Induction of apoptosis in human HT-29 cells at 300 uM after 24 hrs using annexin V-FITC and propidium iodide staining by flow cytometry; type: functional
[25] = system: HT-29; assay: Cell cycle arrest in human HT-29 cells assessed as increase in G2/M phase at 100 to 300 uM after 24 hrs using propidium iodide staining-based flow cytometry; type: functional
[26] = system: HT-29; assay: Cell cycle arrest in human HT-29 cells assessed as increase in S phase at 100 to 300 uM after 24 hrs using propidium iodide staining-based flow cytometry; type: functional
[27] = system: HT-29; assay: Cell cycle arrest in human HT-29 cells assessed as reduction in G0/G1 phase at 100 to 300 uM after 24 hrs using propidium iodide staining-based flow cytometry; type: functional
[28] = system: HT-29; assay: Induction of apoptosis in human HT-29 cells at 100 uM after 24 hrs using annexin V-FITC and propidium iodide staining by flow cytometry; type: functional
[29] = system: SCC-25; assay: Cytotoxicity against human SCC25 cells assessed as growth inhibition after 48 hrs by trypan blue assay; type: functional, cell-based; settings: SCC-25, 48 h
[30] = system: BXPC-3; assay: Cytotoxicity against human BxPC3 cells assessed as growth inhibition after 48 hrs by trypan blue assay; type: functional, cell-based; settings: BXPC-3, 48 h
[31] = system: HT-29; assay: Cytotoxicity against human HT-29 cells assessed as growth inhibition after 48 hrs by trypan blue assay; type: functional, cell-based; settings: HT-29, 48 h
[32] = system: MIA PaCa-2; assay: Cytotoxicity against human MIAPaCa2 cells assessed as growth inhibition after 48 hrs by trypan blue assay; type: functional, cell-based; settings: MIA PaCa-2, 48 h
[33] = system: A549; assay: Cytotoxicity against human A549 cells assessed as growth inhibition after 48 hrs by trypan blue assay; type: functional, cell-based; settings: A549, 48 h
[34] = system: LNCaP; assay: Cytotoxicity against human LNCAP cells assessed as growth inhibition after 48 hrs by trypan blue assay; type: functional, cell-based
[35] = system: HCT-15; assay: Cytotoxicity against human HCT15 cells assessed as growth inhibition after 48 hrs by trypan blue assay; type: functional, cell-based; settings: HCT-15, 48 h

For CCOP(=O)(OCC)OCc1ccc(OC(C)=O)cc1, the Activity [1] was “Dose-dependent effect”, the IC50 [2] was 650 nM and the Activity [3] was 40.8%. For the same compound, the Activity [4] was 38.2%, the IC50 [5] was 670 nM and the IC50 [6] was 670 nM. For the same compound, the Activity [7] was 79%, the Activity [8] was “Active” and the “Ratio IC50” value [9] was 17. The “Ratio IC50” value [10] was 17, the “Ratio IC50” value [11] was 17 and the Activity [12] was 9.6%. The Activity [13] was “Dose-dependent effect”, the “Ratio IC50” value [14] was 17 and the Activity [15] was 53.2%. For the same compound, the IC50 [16] was 820 nM, the “Ratio IC50” value [17] was 17 and the Activity [18] was 42.9%. For the same compound, the “Ratio IC50” value [19] was 17, the Activity [20] was 25% and the Activity [21] was “Dose-dependent effect”. For the same compound, the “Ratio IC50” value [22] was 17 and the Activity [23] was 16.3%.
CCOP(=O)(OCC)OCc1ccc(OC(C)=O)c(Cl)c1 showed an IC50 [2] of 680 nM, an IC50 [5] of 700 nM and an IC50 [6] of 650 nM. For the same compound, the IC50 [16] was 1300 nM.
In the case of CCOP(=O)(OCC)OCc1cccc(OC(C)=O)c1, the Activity [1] is reported as “Dose-dependent effect”, the IC50 [2] is reported as 451000 nM and the Activity [24] is reported as 79%. For the same compound, the IC50 [5] was 214000 nM, the IC50 [6] was 162000 nM and the Activity [25] was “Active”. The Activity [8] was “Active”, the IC50 [16] was 273000 nM and the Activity [26] was “Active”. For the same compound, the Activity [27] was “Active”, the Activity [28] was 19% and the Activity [21] was “Dose-dependent effect”.
CCOP(=O)(OCC)OCc1ccc(OC(C)=O)c(C)c1 was tested, and the IC50 [2] was 290 nM, the IC50 [5] was 320 nM and the IC50 [6] was 280 nM. For the same compound, the IC50 [16] was 310 nM.
In the case of CC(=O)Oc1ccccc1C(=O)Oc1ccc(CO[N+](=O)[O-])cc1, the IC50 [29] is reported as 10 µM, the IC50 [30] is reported as 10 µM and the IC50 [31] is reported as 10 µM. For the same compound, the IC50 [32] was 10 µM, the IC50 [33] was 10 µM and the IC50 [34] was 10 µM. It also gave an IC50 [35] of 10 µM.
CCOP(=O)(OCC)OCc1ccccc1OC(C)=O gave an IC50 [2] of 110000 nM, an IC50 [5] of 62700 nM and an IC50 [6] of 155000 nM. The IC50 [16] was 82700 nM.
